A word on the IC50: it is the concentration that gives 50% inhibition. The low end stands for greater potency in that assay, the high end for weaker potency in that assay.

Molecules are shown by their SMILES.

A short description of the test: Inhibition of Rous sarcoma virus v-Src.
On to `CC(C)CCC[C@@H](COS(=O)(=O)O)[C@H]1CC[C@H]2[C@@H]3CC=C4C[C@H](OS(=O)(=O)O)C[C@@H](O)[C@]4(C)[C@H]3CC[C@]12C`, for which it took 65 µM to reach half-maximal inhibition (IC50). In turn, `CC(CCC[C@@H](C)[C@H]1CC[C@H]2[C@@H]3CC[C@H]4C[C@H](OS(=O)(=O)O)[C@@H](OS(=O)(=O)O)C[C@]4(C)[C@H]3CC[C@]12C)COS(=O)(=O)O` (some centres not stated) yielded an IC50 of 11 µM.

For `CC(CCC[C@@H](C)[C@H]1CC[C@H]2[C@@H]3CC=C4C[C@H](OS(=O)(=O)O)[C@@H](OS(=O)(=O)O)C[C@]4(C)[C@H]3CC[C@]12C)COS(=O)(=O)O` (some centres not stated), the 50% inhibitory concentration (IC50) is 12 µM.

`C[C@@]12CCC(=O)c3coc(c31)C(=O)c1cc3c(O)ccc(O)c3cc12` [HELENAQUINOL] yielded a half-inhibitory concentration (IC50) of 0.6 µM.

`CC(C)CCC[C@@H](COS(=O)(=O)O)[C@H]1CC[C@H]2[C@@H]3CC[C@@H]4[C@H](O)[C@H](OS(=O)(=O)O)CC[C@]4(C)[C@H]3[C@@H](O)C[C@]12C` had an IC50 of 62 µM. Regarding `C[C@@]12CCC(=O)c3coc(c31)C(=O)c1cc3c(cc12)C(=O)C=CC3=O` [HELENAQUINONE], inhibition was half-maximal at 1.5 µM (IC50). Regarding `CC(C)CCC[C@@H](COS(=O)(=O)O)[C@H]1CC[C@H]2[C@@H]3CC=C4C[C@H](OS(=O)(=O)O)CC[C@]4(C)[C@H]3CC[C@]12C`, 31 µM corresponded to half-maximal inhibition (IC50).

(Values after ChEMBL document CHEMBL1148089, “Inhibitors of protein tyrosine kinase pp60v-src: sterol sulfates from the brittle star Ophiarachna incrassata” (J Nat Prod, 1994).)
